According to ChEMBL document CHEMBL1201862, “PubChem BioAssay data set” (2004):
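These data come from cells grown in 96-well plates and exposed to compound for 48 hours at five concentrations. Here, GI50 denotes the concentration required for 50% inhibition of growth.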 The source made the active and inactive calls. No stated cut-off is given here; in the data, active = GI50 up to about 1.1 µM and inactive = higher.

What was measured:
Test in all cases: inhibition of tumour cell growth, NCI panel, 48 h
RPMI-8226 = test system: RPMI-8226
Malme-3M = test system: Malme-3M
HL-60 = test system: HL-60
SF-295 = test system: SF-295
NCI-H460 = test system: NCI-H460
ACHN = test system: ACHN
MDA-MB-231 = test system: MDA-MB-231
SF-268 = test system: SF-268
HCT-116 = test system: HCT-116
HOP-62 = test system: HOP-62
DU-145 = test system: DU-145
OVCAR-4 = test system: OVCAR-4
SK-MEL-2 = test system: SK-MEL-2
KM12 = test system: KM12
NCI-H23 = test system: NCI-H23
UACC-62 = test system: UACC-62
UACC-257 = test system: UACC-257
SF-539 = test system: SF-539
HCC 2998 = test system: HCC 2998

Measured: GI50

Cn1c(=O)c2nc(COCc3nc4c(=O)n(C)c(=O)n(C)c4[nH]3)[nH]c2n(C)c1=O
inactive: RPMI-8226 > 100 µM | Malme-3M > 100 µM | HL-60 > 100 µM | SF-295 > 100 µM | NCI-H460 > 100 µM | ACHN > 100 µM | MDA-MB-231 > 100 µM | SF-268 > 100 µM | HCT-116 > 100 µM | HOP-62 > 100 µM | DU-145 > 100 µM | OVCAR-4 > 100 µM | SK-MEL-2 > 100 µM | KM12 > 100 µM | NCI-H23 > 100 µM | UACC-62 > 100 µM | UACC-257 > 100 µM | SF-539 > 100 µM

Nc1nc(Cl)cc(/N=N\c2ccccc2)n1
inactive: RPMI-8226 20.7 µM | Malme-3M 83.8 µM | HL-60 6.38 µM | SF-295 30.7 µM | ACHN 26.6 µM | MDA-MB-231 22.1 µM | SF-268 29.5 µM | HCT-116 16.4 µM | HOP-62 24.1 µM | DU-145 > 100 µM | SK-MEL-2 20.8 µM | KM12 92.5 µM | NCI-H23 21 µM | UACC-62 28.2 µM | UACC-257 36.1 µM | SF-539 78.9 µM

O=C1CC(Br)c2c(Br)sc(Br)c21 (centres undefined)
inactive: RPMI-8226 8.04 µM | Malme-3M 19.7 µM | HL-60 14.2 µM | SF-295 27.7 µM | NCI-H460 17.3 µM | ACHN 17.7 µM | MDA-MB-231 18.9 µM | SF-268 23.9 µM | HCT-116 13.6 µM | HOP-62 20.9 µM | DU-145 20.7 µM | OVCAR-4 17.3 µM | SK-MEL-2 18.5 µM | KM12 22.9 µM | NCI-H23 16.7 µM | UACC-62 17.1 µM | UACC-257 15.7 µM | SF-539 24.5 µM

CCn1c(=O)c2c3ccc(O)cc3[nH]c2c2ccc(O)cc21
inactive: Malme-3M 95.9 µM | SF-295 > 100 µM | ACHN 96.4 µM | MDA-MB-231 64.4 µM | SF-268 > 100 µM | HCT-116 45.4 µM | HOP-62 > 100 µM | DU-145 > 100 µM | OVCAR-4 > 100 µM | KM12 > 100 µM | NCI-H23 > 100 µM | UACC-62 57 µM | HCC 2998 > 100 µM | UACC-257 > 100 µM | SF-539 > 100 µM

COc1ccc(C2c3c(n(C)c(=O)n(C)c3=O)OC(N(C)C)(N(C)C)C2(F)F)cc1 (centres undefined)
inactive: RPMI-8226 > 100 µM | SF-295 > 100 µM | NCI-H460 > 100 µM | ACHN > 100 µM | MDA-MB-231 > 100 µM | SF-268 > 100 µM | HCT-116 > 100 µM | HOP-62 > 100 µM | DU-145 > 100 µM | OVCAR-4 > 100 µM | SK-MEL-2 > 100 µM | KM12 > 100 µM | NCI-H23 > 100 µM | UACC-62 > 100 µM | HCC 2998 > 100 µM | UACC-257 > 100 µM | SF-539 > 100 µM

Cc1cnoc1/N=C1\C=C(O)C(=O)c2ccccc21
inactive: RPMI-8226 15.4 µM | Malme-3M 3.02 µM | HL-60 10 µM | SF-295 22.8 µM | NCI-H460 6.32 µM | ACHN 21.8 µM | MDA-MB-231 25.6 µM | SF-268 17.8 µM | HCT-116 19.9 µM | HOP-62 10 µM | DU-145 18 µM | OVCAR-4 20.4 µM | SK-MEL-2 2.82 µM | KM12 11.9 µM | NCI-H23 4.71 µM | UACC-62 4.71 µM | UACC-257 16.3 µM | SF-539 21.4 µM

COC(=O)c1ccc(/C=C2\Cc3ccccc3C2=O)cc1
inactive: RPMI-8226 > 100 µM | HL-60 > 100 µM | SF-295 > 100 µM | NCI-H460 > 100 µM | ACHN > 100 µM | MDA-MB-231 > 100 µM | SF-268 > 100 µM | HCT-116 > 100 µM | HOP-62 > 100 µM | DU-145 > 100 µM | OVCAR-4 > 100 µM | KM12 > 100 µM | NCI-H23 > 100 µM | UACC-62 > 100 µM | HCC 2998 > 100 µM | UACC-257 > 100 µM | SF-539 > 100 µM

Cc1ccc(S(=O)(=O)N2CCc3cc(O)c([N+](=O)[O-])cc32)cc1
inactive: Malme-3M > 100 µM | HL-60 > 100 µM | SF-295 > 100 µM | ACHN > 100 µM | MDA-MB-231 > 100 µM | SF-268 > 100 µM | HCT-116 > 100 µM | HOP-62 > 100 µM | DU-145 > 100 µM | OVCAR-4 > 100 µM | SK-MEL-2 > 100 µM | KM12 > 100 µM | NCI-H23 > 100 µM | UACC-62 > 100 µM | UACC-257 > 100 µM | SF-539 > 100 µM

Cc1cccc2c1[nH]c1[nH]c(=O)[nH]c(=O)c12
inactive: RPMI-8226 > 100 µM | Malme-3M > 100 µM | HL-60 > 100 µM | SF-295 > 100 µM | ACHN > 100 µM | MDA-MB-231 > 100 µM | SF-268 > 100 µM | HCT-116 > 100 µM | HOP-62 > 100 µM | DU-145 > 100 µM | OVCAR-4 > 100 µM | SK-MEL-2 > 100 µM | KM12 > 100 µM | NCI-H23 > 100 µM | UACC-62 > 100 µM | UACC-257 > 100 µM | SF-539 > 100 µM

COc1cc(/C=N/NC(=O)c2c(Cl)c(Cl)c(Cl)c(Cl)c2-c2nc3cc(C(=O)c4ccccc4)ccc3[nH]2)ccc1O
inactive: RPMI-8226 30.8 µM | Malme-3M 54.8 µM | HL-60 19.2 µM | SF-295 29.9 µM | ACHN 60.7 µM | MDA-MB-231 26.8 µM | SF-268 36.9 µM | HCT-116 36.1 µM | HOP-62 38.5 µM | DU-145 73.8 µM | OVCAR-4 49.1 µM | SK-MEL-2 39.3 µM | KM12 46.5 µM | NCI-H23 28.4 µM | UACC-257 60.8 µM | SF-539 24.9 µM

CN(C)c1nc2n(CCO)ccnc-2c(=O)n1
inactive: RPMI-8226 > 100 µM | Malme-3M > 100 µM | SF-295 > 100 µM | NCI-H460 > 100 µM | ACHN > 100 µM | MDA-MB-231 > 100 µM | SF-268 > 100 µM | HCT-116 > 100 µM | HOP-62 > 100 µM | DU-145 > 100 µM | OVCAR-4 > 100 µM | SK-MEL-2 > 100 µM | KM12 > 100 µM | NCI-H23 > 100 µM | UACC-62 > 100 µM | HCC 2998 > 100 µM | UACC-257 > 100 µM | SF-539 > 100 µM

Nc1ncc(Cc2ccc3c(c2)OCO3)c(N)n1
inactive: RPMI-8226 > 100 µM | Malme-3M > 100 µM | HL-60 73.5 µM | SF-295 > 100 µM | NCI-H460 > 100 µM | ACHN > 100 µM | MDA-MB-231 > 100 µM | SF-268 > 100 µM | HCT-116 > 100 µM | HOP-62 > 100 µM | DU-145 > 100 µM | OVCAR-4 > 100 µM | KM12 > 100 µM | NCI-H23 > 100 µM | UACC-62 > 100 µM | HCC 2998 5.83 µM | UACC-257 > 100 µM | SF-539 > 100 µM
